Measurements from patent EP3770254A1, “LIQUID P[…] TRANSGLUTAMINASE” (AJINOMOTO CO., INC., priority 2018, dated 2019).
Structures can show the parent of a compound that is named as a salt.

Key:
transglutaminase [1] = target: T1, transglutaminase (Streptomyces mobaraensis, UniProt P81453); conditions: conclusion of Experimental Example 4; organic acid salt 10 wt%, 44°C 24 hr
Text: (§1) A liquid preparation obtained by dissolving only transglutaminase in a phosphate buffer was used as a control and treated in the same manner.

transglutaminase [2] = target: T1, transglutaminase; assay: Experimental Example 1: accelerated test by high temperature storage, transglutaminase activity by hydroxamate method; assay type: physicochemical, microorganism; conditions: conclusion of Experimental Example 1; additive 10 wt%, 44°C 24 hr
Experimental: The enzyme activity of transglutaminase can be measured and calculated by, for example, the hydroxamate method. That is, benzyloxycarbonyl-L-glutaminyl glycine is reacted with hydroxylamine as a substrate to form an iron complex of hydroxamic acid formed in the aforementioned reaction in the presence of trichloroacetic acid, the absorbance at 525 nm is measured, and the amount of hydroxamic acid produced is determined from the calibration curve, whereby the enzyme activity can be calculated.
The stability of transglutaminase in each liquid preparation of the above-mentioned Examples 1 - 5 and Comparative Example 1 was evaluated by an accelerated test by high temperature storage as follows.
Respective liquid preparations of the above-mentioned Examples 1 - 5 and Comparative Example 1 were stored at 4°C and 44°C for 24 hr, and the transglutaminase activity in the liquid preparation was measured by the above-mentioned hydroxamate method.
as §1

T1 sequence (P81453 77-407): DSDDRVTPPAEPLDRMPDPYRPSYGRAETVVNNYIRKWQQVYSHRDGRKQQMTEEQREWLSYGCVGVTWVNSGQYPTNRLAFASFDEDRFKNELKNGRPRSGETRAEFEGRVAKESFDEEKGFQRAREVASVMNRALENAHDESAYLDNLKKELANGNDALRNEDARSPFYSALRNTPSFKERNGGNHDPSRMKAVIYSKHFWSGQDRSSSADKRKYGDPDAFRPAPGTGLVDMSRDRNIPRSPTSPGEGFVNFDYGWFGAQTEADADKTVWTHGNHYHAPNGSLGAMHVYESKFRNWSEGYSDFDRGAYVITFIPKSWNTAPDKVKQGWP

Row | Structure (SMILES) | stabilization of transglutaminase (transglutaminase [1]) | transglutaminase stabilizing effect in a liquid preparation (transglutaminase [2])
1 | O=C(O)CC(O)(CC(=O)O)C(=O)O [sodium citrate] | can also stabilize transglutaminase | –
2 | Cl.NCCCC[C@H](N)C(=O)O [lysine hydrochloride, reference compound] | – | not found
3 | N[C@@H](CC(=O)[O-])C(=O)[O-].[Na+].[Na+] [sodium aspartate] | – | has a transglutaminase stabilizing effect
4 | NCC(=O)O [glycine, 2-aminoacetic acid] | – | has a transglutaminase stabilizing effect
5 | NC(CO)C(=O)O (stereo not drawn) [serine, 2-amino-3-hydroxypropionic acid] | – | has a transglutaminase stabilizing effect
6 | O=C([O-])[C@H](O)[C@@H](O)[C@H](O)[C@H](O)CO.[Na+] [sodium gluconate] | can also stabilize transglutaminase | –
7 | CC(=O)O [sodium acetate] | can also stabilize transglutaminase | –
8 | N[C@@H](CCC(=O)[O-])C(=O)[O-].[Na+].[Na+] [sodium glutamate] | – | has a transglutaminase stabilizing effect
9 | O=C(O)C1CCCN1 (stereo not drawn) [proline, pyrrolidine-2-carboxylic acid] | – | has a transglutaminase stabilizing effect
